Where “and” joins values, the source holds several entries; their conditions need not be identical. Equal values may be shown once. Toxic doses and inconclusive results are not listed. Cut-off read from the data, not from the text of the source: active = T/C of 150% or more; inactive = T/C below 125%.
Tested on: L1210 leukemia ip in BDF1 mice, survival T/C
Assay: NCI In Vivo Anticancer Drug Screen. Data for tumor model L1210 Leukemia (intraperitoneal) in B6D2F1 (BDF1) mice
Conditions: endpoint: mean survival time, higher = longer survival
In short: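 Tumor cells were implanted, animals were treated, and survival was followed. The result divides the treated measurement by the vehicle-control measurement.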

[1] = dose: 50.0 mg/kg/injection, schedule: Q01DX009 (ip), vehicle: saline with Tween-80
[2] = dose: 100.0 mg/kg/injection, schedule: Q01DX009 (ip), vehicle: saline with Tween-80
[3] = dose: 200.0 mg/kg/injection, schedule: Q01DX009 (ip), vehicle: saline with Tween-80
[4] = dose: 100.0 mg/kg/injection, schedule: Q01DX001 (ip), vehicle: Klucel (hydroxypropylcellulose) (HPC)
[5] = dose: 100.0 mg/kg/injection, schedule: Q01DX009 (ip), vehicle: Klucel (hydroxypropylcellulose) (HPC)
[6] = dose: 100.0 mg/kg/injection, schedule: Q04DX002 (ip), vehicle: Klucel (hydroxypropylcellulose) (HPC)
[7] = dose: 100.0 mg/kg/injection, schedule: Q04DX003 (ip), vehicle: Klucel (hydroxypropylcellulose) (HPC)
[8] = dose: 200.0 mg/kg/injection, schedule: Q01DX001 (ip), vehicle: Klucel (hydroxypropylcellulose) (HPC)
[9] = dose: 200.0 mg/kg/injection, schedule: Q04DX002 (ip), vehicle: Klucel (hydroxypropylcellulose) (HPC)
[10] = dose: 200.0 mg/kg/injection, schedule: Q04DX003 (ip), vehicle: Klucel (hydroxypropylcellulose) (HPC)
[11] = dose: 400.0 mg/kg/injection, schedule: Q01DX001 (ip), vehicle: Klucel (hydroxypropylcellulose) (HPC)
[12] = dose: 400.0 mg/kg/injection, schedule: Q04DX002 (ip), vehicle: Klucel (hydroxypropylcellulose) (HPC)
[13] = dose: 400.0 mg/kg/injection, schedule: Q04DX003 (ip), vehicle: Klucel (hydroxypropylcellulose) (HPC)
[14] = dose: 12.5 mg/kg/injection, schedule: Q01DX009 (ip), vehicle: Klucel (hydroxypropylcellulose) (HPC)
[15] = dose: 25.0 mg/kg/injection, schedule: Q01DX009 (ip), vehicle: Klucel (hydroxypropylcellulose) (HPC)
[16] = dose: 50.0 mg/kg/injection, schedule: Q01DX001 (ip), vehicle: carboxymethylcellulose (CMC)
[17] = dose: 100.0 mg/kg/injection, schedule: Q01DX001 (ip), vehicle: carboxymethylcellulose (CMC)

Measured: T/C

BrCCCCOCBr
inactive: [1] 97 % of control | [2] 101 % of control | [3] 106 % of control

O=C(O)CCCc1ccc2sc3ccccc3c2c1
inactive: dose: 100.0 mg/kg/injection, schedule: Q01DX001 (ip), vehicle: saline with Tween-80 100 % of control | dose: 200.0 mg/kg/injection, schedule: Q01DX001 (ip), vehicle: saline with Tween-80 101 % of control

CC(=O)CCCN(CCO)CCO
inactive: dose: 100.0 mg/kg/injection, schedule: Q01DX009 (ip), vehicle: saline 88 % of control | dose: 100.0 mg/kg/injection, schedule: Q04DX003 (ip), vehicle: saline 96 % of control | dose: 200.0 mg/kg/injection, schedule: Q01DX009 (ip), vehicle: saline 92 % of control | dose: 200.0 mg/kg/injection, schedule: Q04DX003 (ip), vehicle: saline 96 % of control | dose: 400.0 mg/kg/injection, schedule: Q01DX009 (ip), vehicle: saline 96 % of control | dose: 400.0 mg/kg/injection, schedule: Q04DX003 (ip), vehicle: saline 102 % of control

CCc1ccccc1NC(=O)SCc1ccccc1
inactive: [4] 91 % of control | [5] 100 % of control and 90 % of control | [6] 95 % of control and 109 % of control | [7] 87 % of control | [8] 94 % of control | dose: 200.0 mg/kg/injection, schedule: Q01DX009 (ip), vehicle: Klucel (hydroxypropylcellulose) (HPC) 90 % of control | [9] 97 % of control and 102 % of control | [10] 102 % of control | [11] 89 % of control | dose: 400.0 mg/kg/injection, schedule: Q01DX009 (ip), vehicle: Klucel (hydroxypropylcellulose) (HPC) 108 % of control and 90 % of control | [12] 92 % of control and 105 % of control | [13] 98 % of control

CCOc1cc(C(F)(F)F)nc2c3c(cc(OC)c12)CCCN3CC
inactive: dose: 100.0 mg/kg/injection, schedule: Q04DX003 (ip), vehicle: saline with Tween-80 102 % of control | dose: 200.0 mg/kg/injection, schedule: Q04DX003 (ip), vehicle: saline with Tween-80 100 % of control | dose: 400.0 mg/kg/injection, schedule: Q04DX003 (ip), vehicle: saline with Tween-80 97 % of control

O=c1[nH]c2ccccc2n1C1CCN(CCCC(c2ccc(F)cc2)c2ccc(F)cc2)CC1
inactive: [14] 100 % of control | [15] 120 % of control | dose: 25.0 mg/kg/injection, schedule: Q04DX003 (ip), vehicle: Klucel (hydroxypropylcellulose) (HPC) 88 % of control | dose: 50.0 mg/kg/injection, schedule: Q04DX003 (ip), vehicle: Klucel (hydroxypropylcellulose) (HPC) 104 % of control | [5] 88 % of control | [7] 104 % of control | [10] 109 % of control | [13] 95 % of control

NC(CSC1c2ccccc2-c2ccccc21)C(=O)O (configuration not stated)
inactive: dose: 75.0 mg/kg/injection, schedule: Q01DX001 (ip), vehicle: carboxymethylcellulose (CMC) 96 % of control | dose: 150.0 mg/kg/injection, schedule: Q01DX001 (ip), vehicle: carboxymethylcellulose (CMC) 98 % of control | dose: 300.0 mg/kg/injection, schedule: Q01DX001 (ip), vehicle: carboxymethylcellulose (CMC) 101 % of control

CC1=NS(=O)(=O)NC(C)(C)C1
inactive: dose: 12.5 mg/kg/injection, schedule: Q01DX009 (ip), vehicle: saline 93 % of control | dose: 25.0 mg/kg/injection, schedule: Q01DX009 (ip), vehicle: saline 93 % of control | [16] 123 % of control | dose: 50.0 mg/kg/injection, schedule: Q01DX009 (ip), vehicle: saline 98 % of control | [17] 96 % of control | [5] 87 % of control

COc1ccc(NC(=O)NCc2ccc(C)c(C)c2)cc1
inactive: [6] 118 % of control | [9] 96 % of control | [12] 104 % of control

Cc1cc(N(CCCl)CCCl)ccc1C=NCCCCN=Cc1ccc(N(CCCl)CCCl)cc1C
inactive: [16] 104 % of control | [17] 106 % of control | dose: 200.0 mg/kg/injection, schedule: Q01DX001 (ip), vehicle: carboxymethylcellulose (CMC) 101 % of control | dose: 400.0 mg/kg/injection, schedule: Q01DX001 (ip), vehicle: carboxymethylcellulose (CMC) 101 % of control

CCCCSSCCCC
inactive: dose: 50.0 mg/kg/injection, schedule: Q01DX001 (ip), vehicle: Klucel (hydroxypropylcellulose) (HPC) 94 % of control | [4] 102 % of control | [8] 105 % of control

C=CC/C=C/C1CCCCC1
inactive: [1] 92 % of control | [2] 100 % of control | [3] 89 % of control

CCCCCCCCCCCCCCCCCC(=O)CCCCCCCCCCCCCCCCC
inactive: [4] 88 % of control | [8] 96 % of control | [11] 91 % of control

O=C1COc2ccc(F)cc2N1
inactive: [6] 98 % of control | [9] 102 % of control | [12] 109 % of control

O=C(O)CN(CC(=O)O)Cc1ccccc1
inactive: dose: 5.0 mg/kg/injection, schedule: Q01DX001 (ip), vehicle: saline 102 % of control | dose: 10.0 mg/kg/injection, schedule: Q01DX001 (ip), vehicle: saline 102 % of control | dose: 20.0 mg/kg/injection, schedule: Q01DX001 (ip), vehicle: saline 100 % of control | dose: 40.0 mg/kg/injection, schedule: Q01DX001 (ip), vehicle: saline 100 % of control

NC(N)=N/N=C/C(=N\N=C(N)N)C(F)(F)F
inactive: dose: 15.0 mg/kg/injection, schedule: Q01DX Z (ip), vehicle: saline 102 % of control | dose: 30.0 mg/kg/injection, schedule: Q01DX Z (ip), vehicle: saline 98 % of control | dose: 60.0 mg/kg/injection, schedule: Q01DX Z (ip), vehicle: saline 101 % of control and 108 % of control | dose: 120.0 mg/kg/injection, schedule: Q01DX Z (ip), vehicle: saline 93 % of control and 106 % of control | dose: 120.0 mg/kg/injection, schedule: Q01DX Z (oral), vehicle: saline 96 % of control | dose: 240.0 mg/kg/injection, schedule: Q01DX Z (ip), vehicle: saline 98 % of control | dose: 240.0 mg/kg/injection, schedule: Q01DX Z (oral), vehicle: saline 104 % of control | dose: 480.0 mg/kg/injection, schedule: Q01DX Z (oral), vehicle: saline 98 % of control | dose: 960.0 mg/kg/injection, schedule: Q01DX Z (oral), vehicle: saline 98 % of control

COc1ccc(-n2c(=O)c(N=Nc3ccc(Br)cc3)c(O)n(-c3ccccc3C)c2=S)cc1
inactive: dose: 75.0 mg/kg/injection, schedule: Q04DX003 (ip), vehicle: Klucel (hydroxypropylcellulose) (HPC) 98 % of control | dose: 150.0 mg/kg/injection, schedule: Q04DX003 (ip), vehicle: Klucel (hydroxypropylcellulose) (HPC) 104 % of control | dose: 300.0 mg/kg/injection, schedule: Q04DX003 (ip), vehicle: Klucel (hydroxypropylcellulose) (HPC) 107 % of control

O=NC1C(Cl)C2CC1C1C=CCC12 (configuration not stated)
inactive: [14] 96 % of control | [15] 98 % of control | dose: 50.0 mg/kg/injection, schedule: Q01DX009 (ip), vehicle: Klucel (hydroxypropylcellulose) (HPC) 91 % of control | [2] 97 % of control | [7] 94 % of control | [10] 92 % of control | [13] 87 % of control

O=C1C(NC(=O)C(Cl)Cl)=C(N2CC2)C(=O)c2ccccc21
inactive: [7] 98 % of control | [10] 102 % of control | [13] 98 % of control

CC(=O)Nc1ccc2c(c1)C(N(C)C)c1ccccc1-2 (configuration not stated)
inactive: [16] 101 % of control | [17] 106 % of control

CCN(c1ccccc1)c1ccc([N+](=O)[O-])c2no[n+]([O-])c12
inactive: dose: 20.0 mg/kg/injection, schedule: Q04DX003 (ip), vehicle: saline with Tween-80 100 % of control | dose: 40.0 mg/kg/injection, schedule: Q04DX003 (ip), vehicle: saline with Tween-80 96 % of control
